According to patent EP0059817A1, “Serpentine, alstonine and sempervirine drugs for the specific inhibition of tumurous and cancerous cells” (priority 1981, dated 1982):
Read-outs that look alike come from different tables or passages of the source.

Tests used:
lymphome YC 8 [1] = assay: lymphoma YC 8 of the mouse, alstonine and cyclophosphamide; format: in vivo, souris BALB C; settings: for survie (surviving mice/total): i.p., alstonine 400 µg par jour, 8 days from day 3, mixture with 2 mg cyclophosphamide
Ascite d'Ehrlich [2] = assay: Ehrlich ascites tumour in the mouse, serpentine, alstonine, cyclophosphamide; format: in vivo, souris blanches Swiss; settings: for survie (surviving mice/total): I.P., serpentine 400 µg par jour, cyclophosphamide 2 ma par jour; for definitive arrest of the Ehrlich ascites tumour (in words): each substance alone, treatment from day 4 or 5 for 10 to 15 days; for évolution de la tumeur d'Ehrlich (figure, weight of mice against days of treatment): voie intrapéritonéale, doses as above, curves 2, 3, 4
Excerpt: Activité vis-à-vis des tumeurs "Ascite d'Ehrlich" chez la souris - 5 x 10^3 cellules Ascite d'Ehrlich sont inoculées à des souris blanches Swiss de 20-24 g, par voie intrapéritonéale.
Divers traitements furent appliqués dès le quatrième ou le cinquième jour et pendant dix à quinze jours. […] Un net ralentissement du développement des tumeurs est observé, mais les tumeurs repartent après arrêt du traitement dans le cas du cyclophosphamide seul, le redémarrage peut être plus tardif qu'avec la serpentine ou l'alstonine. Par contre, l'association de serpentine (400 µg par jour) et de cyclophosphamide (2 ma par jour) par voie I.P. permet d'obtenir une survie définitive (survie définitive : survie normale pendant trois mois sans perte de poids) et le pourcentage des survivants varie de 80 à 100% (Tableau IV ci-après). Les souris ainsi guéries augmentent normalement de poids et après quatre à six mois celui-ci est de 24-26 g. Leur aspect est absolument normal et rien ne les distingue de souris saines. (Dans les expériences, seule la survie sans récidive est prise en considération).
La figurer, où sont portés en abscisses le nombre de jours de traitement et en ordonnées le poids (en gramme) des souris, montre l'évolution de la tumeur d'Ehrlich chez les souris traitées, soit par la serpentine seule (courbe 2), soit par le cyclophosphamide seul (courbe 3), soit par la serpentine + cyclophosphamide (courbe 4) par voie intra- péritonéale et aux doses indiquées ci-dessus. […] Aucun de ces deux traitements ne permet d'obtenir une survie.définitive. Par contre, le mélange de serpentine et de cyclophosphamide permet d'obtenir une survie définitive.

[3] = tested on: Cellules primaires de reins de singe; assay: cell culture cytotoxicity, normal cells; format: cell-based; settings: 200 µg/ml; en culture de 7 jours dès l'ensemencement
Experimental: Des cultures de cellules saines (cellules primaires de reins de singe, cellules de lignée "Vero" et "SIRC") et des cultures de cellules cancéreuses (cellules K.B., cellules Hela, cellules Hep II et cellules L)ont reçu une dose de 200 Mg, soit de serpentine, soit d'alstonine, soit de sempervirine, par ml de culture.
(§1) L'effet cytotoxique spécifique, vis-à-vis des cellules tumorales utilisées, ne s'est jamais démenti au cours des très nombreuses expériences effectuées. Par contre, pour effectuer les cellules saines il a fallu des quantités d'alcaloides au moins dix fois plus grandes (plus de 2 mg/ml). (Les cultures de cellules in-vitro sans mycoplàsmes ont été effectuées dans les conditions classiques et en l'absence d'antibiotique qui pourraient fausser les résultats).
(§2) Les cellules cancéreuses et saines utilisées ne contenaient pas de mycoplasmes et le milieu de culture ne contenait pas d'antibiotique, ces derniers pouvant sensibiliser les cellules et par conséquent fausser les résultats.

Cellules K.B. = assay: cell culture cytotoxicity, cancer cells; format: cell-based; settings: 200 µg/ml; en culture de 3 jours dès l'ensemencement
Experimental: as §1, §2

tumeur MS 301 = assay: transplantable mammary cancer of the mouse; format: in vivo, souris de souche Rh0 III; settings: 400 ^gg at the tumour implantation site, twice a day for 15 days from day 3; n=10; p : 0,01
Excerpt: Action sur le cancer mammaire greffable de la souris • - Vingt souris de 18 à 20g, de souche Rh0 III ont été inoculées, par voie sous-cutanée, par 0,8 " d'un extrait de tumeur MS 301, broyé. Dix souris ont été gardées comme témoins; dix autres vaient, le troisième jour après l'inoculation, 400 ^gg d'alstonine au niveau de l'implantation tumorale, deux fois par jour, pendant quinze- jours. Au seizième jour, les souris étaient anesthésiées et sacrifiées, les tumeurs excisées et pesées. • - La même expérience fut effectuée avec la serpentine au lieu d'alstonine.

virus de la grippe = format: in vivo, souris SWISS; settings: for activity against influenza compared with sempervirine: doses comparables; for survie (surviving mice/total): 200 µg i.p. twice a day, 8 days
Ascite d'Ehrlich [4] = assay: Ehrlich ascites tumour in the mouse, serpentine, alstonine, cyclophosphamide; format: in vivo, souris blanches Swiss; settings: voie sous-cutanée, doses as above
cellules saines = assay: cell culture cytotoxicity, healthy cells as a group; format: cell-based; settings: 200 Mg par ml de culture; au bout de huit jours d'observation; reins de singe, Vero, SIRC
Experimental: as §1, §2

cellules cancéreuses = assay: cell culture cytotoxicity, cancer cells as a group; format: cell-based; settings: 200 Mg par ml de culture; en 24 à 48 heures; K.B., Hela, Hep II, L
Experimental: as §1, §2

lymphome YC 8 [5] = assay: lymphoma YC 8 of the mouse, sempervirine; format: in vivo, souris BALB c; settings: for survie (surviving mice/total): 10 days from day 2
Excerpt: 34 souris BALB c de 17-20 g sont inoculées par voie intra- péritonéale par […] ascitiques du lymphome YC 8 de la souris fraîchement prélevées et dix souris sont gardées comme témoins.
24 souris sont traitées le deuxième jour après inoculation par la sempervirine dissoute en milieu tamponné (pH 7,65) à raison de deux fois par jour par voie intrapéritonéale (300 µ g par jour) et pendant 10 jours consécutifs.
Les résultats sont présentés dans le tableau IX ci-après et illustrent la survie pendant trois mois des animaux traités. (Une survie de plusieurs jours n'est pas prise en considération).

Ascite d'Ehrlich [6] = assay: Ehrlich ascites tumour in the mouse, sempervirine; format: in vivo, souris BALB c; settings: for survie (surviving mice/total): i.p. 300 µg par jour in two doses, 10 days from day 2
Excerpt: Les résultats sont présentés dans le tableau X ci-après et illustrent la survie des animaux pendant trois mois, une survie de plusieurs jours n'étant pas prise en considération.

virus de la vaccine = tested on: virus de la vaccine; parameters: species or system lapin; settings: in vivo
cancers du sein = assay: clinical trials in humans, breast cancer cases; format: in vivo, humains
Excerpt: Toutefois, on a pu constater au cours des essais cliniques sur l'humain que les β-carbolines quaternaires avaient une demi-vie trop courte pour être administrée sous forme galénique mais que, de façon surprenante, on obtenait d'excellents résultats dans le traitement des cancers chez les humains en utilisant une nouvelle forme galénique constituée de microgranules à libération prolongée des p-carbolines quaternaires. Ces microgranules comprennent une âme neutre constituée d'un grain excipient inerte par exemple un ou plusieurs constituants tels que le sacchorose, l'amidon, le talc, la silice désséchante, le lactose et l'acide stéarique, le grain neutre étant muni d'une première couche comprenant la β-carboline quaternaire puis d'une seconde couche extérieure constituée par une enveloppe microporeuse comprenant au moins un polymère naturel et/ou synthétique appartenant à la classe constituée par la gomme laque, la qomme arabique, la gélatine, l'éthylcellulose, l'acétophtalate d2 cellulose, le triacétate de cellulose, le polyoxyéthylèneglycol, les méthacrylates, le copolymère styrène-acrylonitrile et la polyvinylpyrrolidone.
A titre d'exemple, on a reproduit ci-après trois cas significatifs relatifs à.des cancers du sein et pour lesquels on a utilisée la serpentine préparéeselon la nouvelle forme galénique objet de l'invention décrite ci-dessus.

SMILES: O=P1(N(CCCl)CCCl)NCCCO1 (centres unmarked) [cyclophosphamide]
- outcome with cyclophosphamide alone (in words) (lymphome YC 8 [1]; cyclophosphamide seul): après 1-3 mois, l'amaigrissement est tel qu'elles meurent
- amaigrissement of the treated mouse (Ascite d'Ehrlich [2]; cyclophosphamide seul, i.p.): amaigrissement très fort
- survie (surviving mice/total) (Ascite d'Ehrlich [2]; day 0): 6/6
- survie (surviving mice/total) (Ascite d'Ehrlich [2]; day 25): 6/6
- survie (surviving mice/total) (Ascite d'Ehrlich [2]; day 35): 6/6
- survie (surviving mice/total) (Ascite d'Ehrlich [2]; day 60): 2/6
- survie (surviving mice/total) (Ascite d'Ehrlich [2]; day 120): 0/6
- definitive arrest of the Ehrlich ascites tumour (in words) (Ascite d'Ehrlich [2]): ne peuvent définitivement arrêter la tumeur ascitique d'Ehrlich
- évolution de la tumeur d'Ehrlich (figure, weight of mice against days of treatment) (Ascite d'Ehrlich [2]): net ralentissement du poids des tumeurs

SMILES: COC(=O)C1=CO[C@@H](C)[C@@H]2Cn3ccc4c5ccccc5nc-4c3C[C@H]12 [alstonine]
- destruction des cellules [3]: Pas de destruction pendant 8 jours
- destruction des cellules (Cellules K.B.): Destruction totale en 24-48 heures
- POIDS MOYEN (en grammes) DES TUMEURS, AU 16è JOUR (tumeur MS 301): 1,7 (compris entre 0,8 et 2,6) grammes
- survie (in words) (lymphome YC 8 [1]; alstonine seule, same doses, voie sous-cutanée): ne survivent pas plus longtemps que les souris témoins
- survie (surviving mice/total) (lymphome YC 8 [1]; day 0): 10/10
- survie (surviving mice/total) (lymphome YC 8 [1]; day 22): 7/10
- survie (surviving mice/total) (lymphome YC 8 [1]; day 60): 4/10
- survie (surviving mice/total) (lymphome YC 8 [1]; day 90): 4/10
- definitive arrest of the Ehrlich ascites tumour (in words) (Ascite d'Ehrlich [2]): ne peuvent définitivement arrêter la tumeur ascitique d'Ehrlich
- activity against influenza compared with sempervirine (virus de la grippe): résultats tout à fait comparables
- survie and tumour evolution (in words) (Ascite d'Ehrlich [4]): sans effet sur la survie définitive des souris

SMILES: c1ccc2c3ccn4cc5c(cc4c-3nc2c1)CCCC5 [sempervirine]
- destruction des cellules [3]: Pas de destruction pendant 8 jours
- destruction des cellules (Cellules K.B.): Destruction totale en 24-48 heures
- destruction des cellules saines (cellules saines): aucune destruction des cellules saines
- destruction des cellules cancéreuses (cellules cancéreuses): toutes les cellules cancéreuses étaient détruites
- survie (surviving mice/total) (lymphome YC 8 [5]; day 0, i.p. 300 µg par jour in two doses): 24/24
- survie (surviving mice/total) (lymphome YC 8 [5]; day 20, i.p. 300 µ g par jour in two doses): 24/24
- survie (surviving mice/total) (lymphome YC 8 [5]; day 60, i.p. 300 µg par jour in two doses): 20/24
- survie (surviving mice/total) (lymphome YC 8 [5]; day 90, i.p. 300 µg par jour in two doses): 20/24
- state of the surviving mice (lymphome YC 8 [5]; i.p. treated survivors, kept more than three months): tout à fait normales
- survie (in words) (lymphome YC 8 [5]; voie sous-cutanée): ne survivent pas très longtemps après les souris témoins
- survie (surviving mice/total) (Ascite d'Ehrlich [6]; day 0): 20/20
- survie (surviving mice/total) (Ascite d'Ehrlich [6]; day 21): 15/20
- survie (surviving mice/total) (Ascite d'Ehrlich [6]; day 60): 10/20
- survie (surviving mice/total) (Ascite d'Ehrlich [6]; day 90): 10/20
- guérison définitive, proportion of mice (Ascite d'Ehrlich [6]; sempervirine seule, same results in souris blanches SWISS): ~50%
- appearance of papules (virus de la vaccine): non apparition de papules ou apparition de papules dont la tailla est considérablement diminuée
- lung lobes affected by the virus (congestion) (virus de la grippe; […], in controls half of the lobes affected): 0 ou 1 lobe par poumon atteint
- survie (surviving mice/total) (virus de la grippe; day 0, Groupe B: treated from inoculation): 10/10
- survie (surviving mice/total) (virus de la grippe; day 0, Groupe C: treated from 24 h after inoculation): 10/10
- survie (surviving mice/total) (virus de la grippe; day 10, Groupe B: treated from inoculation): 10/10
- survie (surviving mice/total) (virus de la grippe; day 10, Groupe C: treated from 24 h after inoculation): 10/10
- survie (surviving mice/total) (virus de la grippe; day 16, Groupe B: treated from inoculation): 8/10
- survie (surviving mice/total) (virus de la grippe; day 16, Groupe C: treated from 24 h after inoculation): 6/10

SMILES: COC(=O)C1=CO[C@@H](C)[C@H]2Cn3ccc4c5ccccc5nc-4c3C[C@H]12 [serpentine]
- destruction des cellules [3]: Pas de destruction pendant 8 jours
- destruction des cellules (Cellules K.B.): Destruction totale en 24-48 heures
- destruction des cellules saines (cellules saines): aucune destruction des cellules saines
- destruction des cellules cancéreuses (cellules cancéreuses): toutes les cellules cancéreuses étaient détruites
- POIDS MOYEN (en grammes) DES TUMEURS, AU 16è JOUR (tumeur MS 301): 1,6 (compris entre 0,9 et 2,5) grammes
- survie (surviving mice/total) (Ascite d'Ehrlich [2]; day 0): 10/10
- survie (surviving mice/total) (Ascite d'Ehrlich [2]; day 25): 10/10
- survie (surviving mice/total) (Ascite d'Ehrlich [2]; day 35): 0/10
- definitive arrest of the Ehrlich ascites tumour (in words) (Ascite d'Ehrlich [2]): ne peuvent définitivement arrêter la tumeur ascitique d'Ehrlich
- évolution de la tumeur d'Ehrlich (figure, weight of mice against days of treatment) (Ascite d'Ehrlich [2]): net ralentissement du poids des tumeurs
- activity against influenza compared with sempervirine (virus de la grippe): résultats tout à fait comparables
- clinical outcome, case 1 (Madame M.) (cancers du sein; after one month, 100mg en microgranules par jour per os in two doses, after irradiation): régression des deux tumeurs
- clinical outcome, case 3 (Madame L.) (cancers du sein; bone metastases, sustained-release microgranules, 6 months of treatment): La fracture du col du fémur se consolide ainsi que disparait la métastase calcanéenne
- clinical outcome, case 1 (Madame M.) (cancers du sein; during 6 months of treatment, 100mg en microgranules par jour per os): la tumeur du sein diminue et disparait alors que le squirrhe lui-même régresse considérablement
- clinical outcome, case 2 (Madame P.) (cancers du sein; three months, microgranules 100 mg par jour per os in two doses, after radiotherapy and local excision): la douleur qui persistait après l'intervention disparait progressivement et le sein prend un aspect normal et indolore
- survie and tumour evolution (in words) (Ascite d'Ehrlich [4]): sans effet sur la survie définitive des souris
